Experiments:
Assay in all cases: Kinase selectivity panel
Assay type in all cases: biochemical
[1] = target: T1, AAK1(h) (Homo sapiens, UniProt Q2M2I8); conditions: read-out: Inhibition(%) @ 1 µM RK-019
T1 construct: purchased Eurofins Discovery Services (KinaseProfiler)
How it was run: (§1)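 Recombinant human kinase incubated with 1 µM compound; ATP-site competition binding quantified in vitro as inhibition ratio.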

[2] = target: T2, Arg(h) (Homo sapiens, UniProt P42684); conditions: read-out: Inhibition(%) @ 1 µM RK-019
T2 construct: purchased Eurofins Discovery Services (KinaseProfiler)
How it was run: as §1

[3] = target: T3, BRK(h) (Homo sapiens, UniProt Q13882); conditions: read-out: Inhibition(%) @ 1 µM RK-019
T3 construct: purchased Eurofins Discovery Services (KinaseProfiler)
How it was run: as §1

[4] = target: T4, CDK18/cyclinY(h) (Homo sapiens, UniProt Q07002); conditions: read-out: Inhibition(%) @ 1 µM RK-019
T4 construct: purchased Eurofins Discovery Services (KinaseProfiler)
How it was run: as §1

[5] = target: T5, CDK7/cyclinH/MAT1(h) (Homo sapiens, UniProt P50613); conditions: read-out: Inhibition(%) @ 1 µM RK-019
T5 construct: purchased Eurofins Discovery Services (KinaseProfiler)
How it was run: as §1

[6] = target: T6, CDKL4(h) (Homo sapiens, UniProt Q5MAI5); conditions: read-out: Inhibition(%) @ 1 µM RK-019
T6 construct: purchased Eurofins Discovery Services (KinaseProfiler)
How it was run: as §1

[7] = target: T7, CaMKIδ(h) (Homo sapiens, UniProt Q8IU85); conditions: read-out: Inhibition(%) @ 1 µM RK-019
T7 construct: purchased Eurofins Discovery Services (KinaseProfiler)
How it was run: as §1

[8] = target: T8, CaMKK1(h) (Homo sapiens, UniProt Q8N5S9); conditions: read-out: Inhibition(%) @ 1 µM RK-019
T8 construct: purchased Eurofins Discovery Services (KinaseProfiler)
How it was run: as §1

[9] = target: T9, DYRK1B(h) (Homo sapiens, UniProt Q9Y463); conditions: read-out: Inhibition(%) @ 1 µM RK-019
T9 construct: purchased Eurofins Discovery Services (KinaseProfiler)
How it was run: as §1

[10] = target: T10, EGFR(T790M)(h) (Homo sapiens, UniProt P00533, T790M); conditions: read-out: Inhibition(%) @ 1 µM RK-019
T10 construct: purchased Eurofins Discovery Services (KinaseProfiler)
How it was run: as §1

[11] = target: T11, EphA1(h) (Homo sapiens, UniProt P21709); conditions: read-out: Inhibition(%) @ 1 µM RK-019
T11 construct: purchased Eurofins Discovery Services (KinaseProfiler)
How it was run: as §1

[12] = target: T12, EphA7(h) (Homo sapiens, UniProt Q15375); conditions: read-out: Inhibition(%) @ 1 µM RK-019
T12 construct: purchased Eurofins Discovery Services (KinaseProfiler)
How it was run: as §1

[13] = target: T13, FGFR2(h) (Homo sapiens, UniProt P21802)
T13 construct: purchased Eurofins Discovery Services (KinaseProfiler)
How it was run: as §1

[14] = target: T14, Fgr(h) (Homo sapiens, UniProt P09769); conditions: read-out: Inhibition(%) @ 1 µM RK-019
T14 construct: purchased Eurofins Discovery Services (KinaseProfiler)
How it was run: as §1

[15] = target: T15, Flt3(D835Y)(h) (Homo sapiens, UniProt P36888, D835Y); conditions: read-out: Inhibition(%) @ 1 µM RK-019
T15 construct: purchased Eurofins Discovery Services (KinaseProfiler)
How it was run: as §1

[16] = target: T16, Fms(Y969C)(h) (Homo sapiens, UniProt P07333, Y969C); conditions: read-out: Inhibition(%) @ 1 µM RK-019
T16 construct: purchased Eurofins Discovery Services (KinaseProfiler)
How it was run: as §1

[17] = target: T17, GSK3α(h) (Homo sapiens, UniProt P49840); conditions: read-out: Inhibition(%) @ 1 µM RK-019
T17 construct: purchased Eurofins Discovery Services (KinaseProfiler)
How it was run: as §1

[18] = target: T18, HIPK4(h) (Homo sapiens, UniProt Q8NE63); conditions: read-out: Inhibition(%) @ 1 µM RK-019
T18 construct: purchased Eurofins Discovery Services (KinaseProfiler)
How it was run: as §1

[19] = target: T19, IGF-1R(h) (Homo sapiens, UniProt P08069); conditions: read-out: Inhibition(%) @ 1 µM RK-019
T19 construct: purchased Eurofins Discovery Services (KinaseProfiler)
How it was run: as §1

[20] = target: T20, JNK3(h) (Homo sapiens, UniProt P53779); conditions: read-out: Inhibition(%) @ 1 µM RK-019
T20 construct: purchased Eurofins Discovery Services (KinaseProfiler)
How it was run: as §1

[21] = target: T21, MAPKAP-K2(h) (Homo sapiens, UniProt P49137); conditions: read-out: Inhibition(%) @ 1 µM RK-019
T21 construct: purchased Eurofins Discovery Services (KinaseProfiler)
How it was run: as §1

[22] = target: T22, MINK(h) (Homo sapiens, UniProt Q8N4C8); conditions: read-out: Inhibition(%) @ 1 µM RK-019
T22 construct: purchased Eurofins Discovery Services (KinaseProfiler)
How it was run: as §1

[23] = target: T23, MLK3(h) (Homo sapiens, UniProt Q16584); conditions: read-out: Inhibition(%) @ 1 µM RK-019
T23 construct: purchased Eurofins Discovery Services (KinaseProfiler)
How it was run: as §1

[24] = target: T24, NEK4(h) (Homo sapiens, UniProt P51957); conditions: read-out: Inhibition(%) @ 1 µM RK-019
T24 construct: purchased Eurofins Discovery Services (KinaseProfiler)
How it was run: as §1

[25] = target: T25, NEK6(h) (Homo sapiens, UniProt Q9HC98); conditions: read-out: Inhibition(%) @ 1 µM RK-019
T25 construct: purchased Eurofins Discovery Services (KinaseProfiler)
How it was run: as §1

[26] = target: T26, PAK2(h) (Homo sapiens, UniProt Q13177); conditions: read-out: Inhibition(%) @ 1 µM RK-019
T26 construct: purchased Eurofins Discovery Services (KinaseProfiler)
How it was run: as §1

[27] = target: T27, PAK4(h) (Homo sapiens, UniProt O96013); conditions: read-out: Inhibition(%) @ 1 µM RK-019
T27 construct: purchased Eurofins Discovery Services (KinaseProfiler)
How it was run: as §1

[28] = target: T28, PI3 Kinase (p110a(E542K)/p85a)(m) (Mus musculus, UniProt P42337, E542K); conditions: read-out: Inhibition(%) @ 1 µM RK-019
T28 construct: purchased Eurofins Discovery Services (KinaseProfiler)

[29] = target: T29, PI3 Kinase (p110b/p85a)(h) (Homo sapiens, UniProt P42338); conditions: read-out: Inhibition(%) @ 1 µM RK-019
T29 construct: purchased Eurofins Discovery Services (KinaseProfiler)
How it was run: as §1

[30] = target: T30, PKG1β(h) (Homo sapiens, UniProt Q13976); conditions: read-out: Inhibition(%) @ 1 µM RK-019
T30 construct: purchased Eurofins Discovery Services (KinaseProfiler)
How it was run: as §1

[31] = target: T31, PRK2(h) (Homo sapiens, UniProt Q16513); conditions: read-out: Inhibition(%) @ 1 µM RK-019
T31 construct: purchased Eurofins Discovery Services (KinaseProfiler)
How it was run: as §1

[32] = target: T32, SAPK3(h) (Homo sapiens, UniProt P53778); conditions: read-out: Inhibition(%) @ 1 µM RK-019
T32 construct: purchased Eurofins Discovery Services (KinaseProfiler)
How it was run: as §1

[33] = target: T33, TAK1(h) (Homo sapiens, UniProt O43318); conditions: read-out: Inhibition(%) @ 1 µM RK-019
T33 construct: purchased Eurofins Discovery Services (KinaseProfiler)
How it was run: as §1

[34] = target: T34, TGFBR2(h) (Homo sapiens, UniProt P37173); conditions: read-out: Inhibition(%) @ 1 µM RK-019
T34 construct: purchased Eurofins Discovery Services (KinaseProfiler)
How it was run: as §1

[35] = target: T35, TrkC(h) (Homo sapiens, UniProt Q16288); conditions: read-out: Inhibition(%) @ 1 µM RK-019
T35 construct: purchased Eurofins Discovery Services (KinaseProfiler)
How it was run: as §1

[36] = target: T36, eEF-2K(h) (Homo sapiens, UniProt O00418); conditions: read-out: Inhibition(%) @ 1 µM RK-019
T36 construct: purchased Eurofins Discovery Services (KinaseProfiler)
How it was run: as §1

T13 sequence (P21802 22-821): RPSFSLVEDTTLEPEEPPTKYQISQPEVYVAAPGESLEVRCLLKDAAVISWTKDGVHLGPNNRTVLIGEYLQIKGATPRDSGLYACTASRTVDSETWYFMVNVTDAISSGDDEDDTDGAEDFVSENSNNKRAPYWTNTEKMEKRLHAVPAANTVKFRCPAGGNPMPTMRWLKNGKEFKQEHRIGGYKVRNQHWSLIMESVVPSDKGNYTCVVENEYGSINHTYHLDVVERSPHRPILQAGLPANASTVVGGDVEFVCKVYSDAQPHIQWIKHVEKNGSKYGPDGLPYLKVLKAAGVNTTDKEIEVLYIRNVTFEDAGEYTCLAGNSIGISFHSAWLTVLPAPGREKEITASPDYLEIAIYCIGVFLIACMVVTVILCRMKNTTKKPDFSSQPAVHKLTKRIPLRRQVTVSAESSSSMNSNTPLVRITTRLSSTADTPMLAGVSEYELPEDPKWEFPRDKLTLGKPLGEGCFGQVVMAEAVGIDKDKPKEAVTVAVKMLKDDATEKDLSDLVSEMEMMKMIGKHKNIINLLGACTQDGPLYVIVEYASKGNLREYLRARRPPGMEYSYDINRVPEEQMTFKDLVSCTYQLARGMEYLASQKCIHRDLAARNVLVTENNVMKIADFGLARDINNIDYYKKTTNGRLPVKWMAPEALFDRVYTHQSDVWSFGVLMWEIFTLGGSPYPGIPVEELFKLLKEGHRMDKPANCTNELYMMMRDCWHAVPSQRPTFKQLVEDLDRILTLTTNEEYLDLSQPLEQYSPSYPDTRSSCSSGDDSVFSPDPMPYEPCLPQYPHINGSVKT
T16 sequence (P07333 20-972 Y969C): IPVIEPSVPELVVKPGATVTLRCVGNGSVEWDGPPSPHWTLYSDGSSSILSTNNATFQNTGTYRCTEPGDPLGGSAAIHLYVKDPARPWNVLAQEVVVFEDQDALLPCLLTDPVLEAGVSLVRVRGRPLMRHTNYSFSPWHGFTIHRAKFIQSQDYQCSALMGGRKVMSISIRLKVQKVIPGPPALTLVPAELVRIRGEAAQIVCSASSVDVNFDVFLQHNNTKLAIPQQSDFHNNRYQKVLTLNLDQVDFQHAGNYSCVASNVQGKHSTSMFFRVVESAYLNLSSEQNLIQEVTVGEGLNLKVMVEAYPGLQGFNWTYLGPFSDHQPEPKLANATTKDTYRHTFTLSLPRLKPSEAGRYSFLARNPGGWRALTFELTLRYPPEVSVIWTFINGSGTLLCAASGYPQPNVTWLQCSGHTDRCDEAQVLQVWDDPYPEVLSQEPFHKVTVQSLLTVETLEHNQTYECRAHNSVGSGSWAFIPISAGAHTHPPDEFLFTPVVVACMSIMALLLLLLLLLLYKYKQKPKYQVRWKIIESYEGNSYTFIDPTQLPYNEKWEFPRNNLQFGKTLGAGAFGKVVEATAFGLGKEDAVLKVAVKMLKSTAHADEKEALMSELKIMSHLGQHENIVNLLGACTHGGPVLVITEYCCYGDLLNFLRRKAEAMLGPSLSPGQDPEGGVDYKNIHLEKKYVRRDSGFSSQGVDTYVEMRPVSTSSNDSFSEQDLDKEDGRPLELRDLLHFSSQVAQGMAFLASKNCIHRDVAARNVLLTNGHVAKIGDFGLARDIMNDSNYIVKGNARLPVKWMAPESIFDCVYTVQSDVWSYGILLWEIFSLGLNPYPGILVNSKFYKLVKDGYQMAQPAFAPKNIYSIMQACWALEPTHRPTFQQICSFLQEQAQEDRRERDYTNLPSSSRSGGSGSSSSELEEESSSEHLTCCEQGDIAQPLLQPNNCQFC
T31 sequence (Q16513 whole entry): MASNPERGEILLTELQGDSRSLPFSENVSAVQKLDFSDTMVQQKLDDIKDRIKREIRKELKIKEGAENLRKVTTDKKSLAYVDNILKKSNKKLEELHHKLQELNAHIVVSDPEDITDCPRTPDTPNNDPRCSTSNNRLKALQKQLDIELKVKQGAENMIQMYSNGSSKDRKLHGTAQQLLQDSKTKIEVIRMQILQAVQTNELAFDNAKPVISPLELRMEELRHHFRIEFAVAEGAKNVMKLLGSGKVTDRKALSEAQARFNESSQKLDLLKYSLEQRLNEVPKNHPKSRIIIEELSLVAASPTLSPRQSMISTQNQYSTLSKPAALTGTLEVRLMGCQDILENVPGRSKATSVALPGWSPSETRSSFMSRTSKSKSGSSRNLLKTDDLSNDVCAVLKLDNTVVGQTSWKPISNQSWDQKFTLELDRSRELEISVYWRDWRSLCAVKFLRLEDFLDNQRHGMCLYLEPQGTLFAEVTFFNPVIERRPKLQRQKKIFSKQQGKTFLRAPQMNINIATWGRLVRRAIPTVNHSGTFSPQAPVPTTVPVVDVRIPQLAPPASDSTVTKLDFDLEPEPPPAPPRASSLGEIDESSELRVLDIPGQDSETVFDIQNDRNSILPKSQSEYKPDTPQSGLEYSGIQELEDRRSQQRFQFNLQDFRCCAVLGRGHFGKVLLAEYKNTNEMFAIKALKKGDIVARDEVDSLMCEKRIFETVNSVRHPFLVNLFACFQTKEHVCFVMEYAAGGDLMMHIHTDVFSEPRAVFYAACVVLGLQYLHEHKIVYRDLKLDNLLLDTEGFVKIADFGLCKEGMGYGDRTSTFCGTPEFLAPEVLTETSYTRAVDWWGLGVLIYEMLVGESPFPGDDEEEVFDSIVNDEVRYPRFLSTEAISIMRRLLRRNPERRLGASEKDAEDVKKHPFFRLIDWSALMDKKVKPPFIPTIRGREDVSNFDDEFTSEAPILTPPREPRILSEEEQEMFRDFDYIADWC
T26 sequence (Q13177 whole entry): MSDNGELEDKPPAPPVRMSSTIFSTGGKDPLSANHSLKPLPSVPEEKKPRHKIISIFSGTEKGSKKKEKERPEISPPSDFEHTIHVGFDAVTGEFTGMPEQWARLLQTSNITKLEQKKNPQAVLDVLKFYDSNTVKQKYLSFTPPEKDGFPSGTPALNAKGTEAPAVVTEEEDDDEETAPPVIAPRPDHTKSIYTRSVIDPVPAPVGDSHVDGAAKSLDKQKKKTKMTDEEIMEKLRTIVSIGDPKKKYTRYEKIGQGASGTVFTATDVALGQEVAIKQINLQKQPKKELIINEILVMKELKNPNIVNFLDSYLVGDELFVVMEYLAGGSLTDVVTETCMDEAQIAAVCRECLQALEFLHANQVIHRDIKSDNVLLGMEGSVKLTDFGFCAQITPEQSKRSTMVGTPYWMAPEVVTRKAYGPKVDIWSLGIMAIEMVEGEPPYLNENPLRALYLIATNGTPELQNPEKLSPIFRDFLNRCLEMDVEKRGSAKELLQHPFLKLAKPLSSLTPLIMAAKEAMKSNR
T24 sequence (P51957 whole entry): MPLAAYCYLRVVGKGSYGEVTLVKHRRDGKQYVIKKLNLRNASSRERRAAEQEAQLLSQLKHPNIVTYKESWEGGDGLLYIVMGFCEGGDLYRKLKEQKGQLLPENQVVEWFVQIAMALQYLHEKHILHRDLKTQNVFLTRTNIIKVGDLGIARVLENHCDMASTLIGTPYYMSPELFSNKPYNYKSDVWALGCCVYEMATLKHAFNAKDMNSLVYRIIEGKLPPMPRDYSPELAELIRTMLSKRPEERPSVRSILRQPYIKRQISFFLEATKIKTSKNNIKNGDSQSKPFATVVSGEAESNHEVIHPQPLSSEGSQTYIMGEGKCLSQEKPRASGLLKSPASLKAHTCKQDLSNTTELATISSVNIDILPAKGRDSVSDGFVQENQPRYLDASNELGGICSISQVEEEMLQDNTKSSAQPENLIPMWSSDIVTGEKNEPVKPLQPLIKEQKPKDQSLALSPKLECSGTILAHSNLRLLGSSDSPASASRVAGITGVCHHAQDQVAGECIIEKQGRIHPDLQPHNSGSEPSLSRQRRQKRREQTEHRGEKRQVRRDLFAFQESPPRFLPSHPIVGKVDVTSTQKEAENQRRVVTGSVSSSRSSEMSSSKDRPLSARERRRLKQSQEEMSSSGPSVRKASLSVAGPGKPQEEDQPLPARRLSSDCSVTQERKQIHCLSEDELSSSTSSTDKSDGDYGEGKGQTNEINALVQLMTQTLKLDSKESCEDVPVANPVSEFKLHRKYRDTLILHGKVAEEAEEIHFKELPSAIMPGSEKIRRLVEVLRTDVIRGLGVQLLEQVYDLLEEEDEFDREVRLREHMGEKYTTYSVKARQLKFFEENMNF
T33 sequence (O43318 1-303 limits assumed): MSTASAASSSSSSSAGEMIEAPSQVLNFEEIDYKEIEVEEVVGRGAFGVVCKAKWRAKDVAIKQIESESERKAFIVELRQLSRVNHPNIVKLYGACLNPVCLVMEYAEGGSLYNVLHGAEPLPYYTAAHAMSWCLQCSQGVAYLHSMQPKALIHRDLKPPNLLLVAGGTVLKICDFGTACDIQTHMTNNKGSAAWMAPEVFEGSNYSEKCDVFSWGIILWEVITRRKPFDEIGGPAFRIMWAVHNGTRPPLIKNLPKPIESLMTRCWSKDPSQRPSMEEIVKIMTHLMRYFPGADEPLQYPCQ
T3 sequence (Q13882 whole entry): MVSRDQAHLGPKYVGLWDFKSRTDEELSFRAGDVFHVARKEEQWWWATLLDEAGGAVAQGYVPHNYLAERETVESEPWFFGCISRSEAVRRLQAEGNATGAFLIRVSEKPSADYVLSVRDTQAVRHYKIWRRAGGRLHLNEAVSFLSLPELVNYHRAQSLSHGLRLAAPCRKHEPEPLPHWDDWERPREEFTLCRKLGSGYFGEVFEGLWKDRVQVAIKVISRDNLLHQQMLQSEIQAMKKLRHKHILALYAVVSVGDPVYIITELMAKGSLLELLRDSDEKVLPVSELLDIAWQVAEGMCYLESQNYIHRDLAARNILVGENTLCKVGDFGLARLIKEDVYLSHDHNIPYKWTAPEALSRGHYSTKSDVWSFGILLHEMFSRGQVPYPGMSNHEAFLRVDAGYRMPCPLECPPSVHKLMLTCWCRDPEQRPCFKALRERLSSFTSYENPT

COc1cc(OC)cc(N(CCN[C@H](C)CO)c2ccc3ncc(-c4cnn(C)c4)c(=O)n3c2)c1 [RK-019, (R)-7-((3,5-dimethoxyphenyl) (2-((1-hydroxypropan-2-yl)amino)ethyl)amino)-3-(1-methyl-1H-pyrazol-4-yl)-4H-pyrido [1,2-a]pyrimidin-4-one]
activity at 1 µM [1]: 91% | activity at 1 µM [2]: 86% | activity at 1 µM [3]: 89% | activity at 1 µM [4]: 96% | activity at 1 µM [5]: 108% | activity at 1 µM [6]: 90% | activity at 1 µM [7]: 98% | activity at 1 µM [8]: 105% | activity at 1 µM [9]: 97% | activity at 1 µM [10]: 90% | activity at 1 µM [11]: 19% | activity at 1 µM [12]: 108% | activity at 1 µM ([13]; FGFR2(h), read-out: Inhibition(%) @ 1 µM RK-019): 1% | inhibition at 1 µM ([13]; FGFR2, 1 µM, read-out: inhibition (hit in panel)): > 90% | activity at 1 µM [14]: 54% | activity at 1 µM [15]: 86% | activity at 1 µM [16]: 31% | activity at 1 µM [17]: 85% | activity at 1 µM [18]: 100% | activity at 1 µM [19]: 104% | activity at 1 µM [20]: 91% | activity at 1 µM [21]: 121% | activity at 1 µM [22]: 133% | activity at 1 µM [23]: 98% | activity at 1 µM [24]: 109% | activity at 1 µM [25]: 97% | activity at 1 µM [26]: 98% | activity at 1 µM [27]: 82% | activity at 1 µM [28]: 99% | activity at 1 µM [29]: 100% | activity at 1 µM [30]: 103% | activity at 1 µM [31]: 106% | activity at 1 µM [32]: 99% | activity at 1 µM [33]: 102% | activity at 1 µM [34]: 85% | activity at 1 µM [35]: 86% | activity at 1 µM [36]: 97%

Reference: publication PMC9532703, “A novel small molecule RK-019 inhibits FGFR2-amplification gastric cancer cell proliferation and induces apoptosis in vitro and in vivo” (Frontiers in Pharmacology, 2022)
